# Measured values published in patent publication US5028604A, “Condensed benzene derivative” (Zeria Pharmaceutical Co., Ltd., priority 1988, dated 1991).
# Where two headings read alike, the source gives them in different places.
# Key:
# [1] = biological target: T1, prolyl endopeptidase from canine brain (Canis lupus familiaris, UniProt A0A8I3N6C8); test: Inhibitory Activity Against Prolyl Endopeptidase From Brain; type: biochemical; conditions: 37° C., pH 7.0, substrate benzyloxycarbonylglycylprolylparanitroanilide; read-out: Inhibition Potency, IC50
# T1 construct: A prolyl endopeptidase was prepared from canine brains; from tissue; host or cells: canine brain
# T1 sequence (A0A8I3N6C8 1-710): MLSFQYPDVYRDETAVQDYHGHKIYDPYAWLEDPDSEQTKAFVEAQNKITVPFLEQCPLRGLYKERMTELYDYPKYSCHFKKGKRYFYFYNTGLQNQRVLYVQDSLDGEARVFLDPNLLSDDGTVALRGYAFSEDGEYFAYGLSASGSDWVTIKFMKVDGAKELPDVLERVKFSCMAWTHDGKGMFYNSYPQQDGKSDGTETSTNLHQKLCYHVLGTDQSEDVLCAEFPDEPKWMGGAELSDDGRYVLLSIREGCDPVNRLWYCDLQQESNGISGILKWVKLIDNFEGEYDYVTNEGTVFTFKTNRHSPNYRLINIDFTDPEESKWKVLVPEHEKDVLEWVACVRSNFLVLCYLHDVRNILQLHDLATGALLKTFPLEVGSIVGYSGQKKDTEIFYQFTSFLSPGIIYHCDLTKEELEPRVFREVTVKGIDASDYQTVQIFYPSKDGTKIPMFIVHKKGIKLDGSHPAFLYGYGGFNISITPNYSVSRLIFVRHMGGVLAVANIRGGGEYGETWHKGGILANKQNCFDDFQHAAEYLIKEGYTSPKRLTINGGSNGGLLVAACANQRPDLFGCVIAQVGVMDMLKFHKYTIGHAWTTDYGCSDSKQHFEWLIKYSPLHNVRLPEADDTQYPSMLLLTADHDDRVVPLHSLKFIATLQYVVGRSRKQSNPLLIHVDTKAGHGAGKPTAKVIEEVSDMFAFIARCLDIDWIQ
# Experimental: Following buffer solutions were used for the measurement.
# Buffer A: 20 mM Tris-HCl buffer (pH 7.0)
# Buffer B: Buffer A containing 0.1% gelatin, 1 mM EDTA, and 1 mM 2-mercaptoethanol
# This solution (50 μl) was added to 940 μl of the Buffer A, and the solution thus obtained was left at 37° C. for 10 minutes (This solution is herein referred to as "Enzyme solution"). A mixed solution of 50 μl of the Buffer B and 940 μl of Buffer A was used as a "Correction solution".
# A test compound was dissolved in dimethylsulfoxide, and 10 μl of the solution was added to the Enzyme solution. The mixture was stirred and allowed to stand at 37° C. for 10 minutes. Separately, 10 μl of dimethylsulfoxide was added to the Enzyme solution and was processed in the same manner. The solution thus obtained was served as a "Control solution". The same procedure was carried out on the Correction solution.
# One hundred (100) μl of 2.5 mM benzyloxycarbonylglycylprolylparanitroanilide, which was dissolved with 40% dioxane, was added to each of the above 3 solutions, i.e., the Enzyme solution with the test compound, Control solution, and Correction solution, and the reaction was carried out at 37° C. for 10 minutes.
# Enzyme activities were determined by subtracting the blank value, i.e., the absorbance measured on the Correction solution, from the absorbance of each of the sample solutions and of the Control solution.
# ICR male mice = test: Anti-Hypoxic Activity (survival time in 4% O2 + 96% N2); type: in vivo; conditions: Mus musculus, ip
# Experimental: Groups of ICR male mice (Charles River Co.), age 4 to 5 weeks, each group consisting of 10 mice and each mouse having been fasted for 24 hours, were used for the test. Mice were placed in a transparent desiccator (diameter: 19 cm, height: 30 cm) made of synthetic resin and having 2 valves, one at the upper portion and the other at the lower portion, for replacing the gas therein. A mixed gas (4% O2 +96% N2) was fed from the upper valve at a rate of 10 l/min to measure the period of time until respiratory arrest took place for each mouse. The time measured was taken as the survival time.
# Each tested compound suspended in an solvent was intraperitoneally administered 30 minutes before the start of the mixed gas feeding. A group of mice to which only the solvent was intraperitoneally administered was used as a control.
# The anti-hypoxic activity was determined according to the following formula, [formula]
# CD female rats = test: Anti-Amnesic Activity (passive avoidance, electric convulsive shock); type: in vivo; conditions: 30 mg/kg P.O., one hour before acquisition trial; ECS; retention trial at 24 hours; solvent + sham 133.0, solvent + ECS 0.8
# Experimental: Compounds of this invention were checked with respect to their abilities to prevent the inhibition of long-term memory fixation by electric convulsive shock (ECS). CD female rats (Charles River), weighed 160-180 g were used for the test. One hour after the administration of a compound of this invention, the acquisition trial according to the passive avoidance training was performed on the rats. A foot shock was given to the rats when they entered into a dark room. Immediately after that an amnesic treatment by ECS or a sham amnesic treatment was performed. Twenty four (24) hours after the acquisition trial the retention trial was performed. Latency of the […] entering into a dark room was measured.
# [2] = 100 mg/kg i.p., 30 minutes before mixed gas, control = 100, read-out: Anti-hypoxic Activity
# [3] = read-out: Anti-hypoxic Activity
SMILES,IC50 [1],response vs control in vivo at 100 mg/kg (ICR male mice; [2]),further results
"O=C(C1CSCCN1C(=O)CC1Cc2ccccc2C1)N1CCSC1 (racemic) [Example 5, 3-[4-(2-indanylacetyl)-DL-1,4-thiazan-3-ylcarbonyl]thiazolidine]",0.022 µM,–,–
"O=C([C@@H]1CCCN1C(=O)CC1=Cc2ccccc2C1)N1CCSC1 [Example 18, 3-[1-(2-indenylacetyl)-L-prolyl]thiazolidine]",0.043 µM,–,–
"O=C([C@H]1CCCCN1C(=O)CC1Cc2ccccc2C1)N1CCCC1 [Example 11, 1-[1-(2-indanylacetyl)-D-piperidine-2-ylcarbonyl]pyrrolidine]",–,–,"response vs control in vivo at 50 mg/kg (ICR male mice; 50 mg/kg i.p., 30 minutes before mixed gas, control = 100): 141%"
"O=C(O)[C@@H]1CCCN1C(=O)[C@@H]1CCCN1C(=O)CC1Cc2ccccc2C1 [Example 17, 1-[1-(2-indanylacetyl)-L-prolyl]-L-proline]",–,137%,–
"O=C[C@@H]1CCCN1C(=O)[C@@H]1CCCN1C(=O)CC1=Cc2ccccc2C1 [Example 42, 1-[1-(2-indenylacetyl)-L-prolyl]-L-prolinal]",0.0013 µM,168%,–
"COc1ccc(C(=O)N2CCCC2=O)cc1 [Aniracetam, reference compound]",> 1000 µM,–,response vs control in vivo at 100 mg/kg (ICR male mice; [3]): 115%; response vs control in vivo at 300 mg/kg (ICR male mice; [3]): 159%
"O=C([C@@H]1CSCN1C(=O)CC1Cc2ccccc2C1)N1CCSC1 [Example 1, 3-[3-(2-indanylacetyl)-L-thioprolyl]thiazolidine]",–,131%,Latency to entering into a dark room (CD female rats): 77.0 s
"O=C([C@@H]1CSCN1C(=O)CC1Cc2ccccc2C1)N1CCCC1 [Example 2, 1-[3-(2-indanylacetyl)-L-thioprolyl]pyrrolidine]",–,127%,–
"O=C([C@@H]1CSCN1C(=O)CCCC1Cc2ccccc2C1)N1CCCC1 [Example 26, 1-{3-[4-(indan-2-yl)butanoyl]-L-thioprolyl}pyrrolidine]",–,291%,–
"COC1=C(OC)C(=O)C(CCCCCCCCCCO)=C(C)C1=O [Idebenone, reference compound]",–,140%,–
"O=C([C@@H]1CCCCN1C(=O)CC1Cc2ccccc2C1)N1CCCC1 [Example 10, 1-[1-(2-indanylacetyl)-L-piperidine-2ylcarbonyl]pyrrolidine]",0.049 µM,–,–
"O=C([C@@H]1CCCN1C(=O)CC1=Cc2ccccc2C1)N1CCCC1 [Example 19, 1-[1-(2-indenyl-acetyl)-L-prolyl]pyrrolidine]",–,155%,–
"O=C([C@@H]1CCCN1C(=O)CC1CCc2ccccc2C1)N1CCCC1 (stereo partly drawn) [Example 24, 1-[1-(1,2,3,4-tetrahydronaphthalen-2-ylacetyl)-L-prolyl]pyrrolidine]",–,235%,–
"O=C([C@@H]1CCCN1C(=O)CC1Cc2ccccc2C1)N1CCCC1 [Example 4, 1-[1-(2-indanylacetyl)-L-prolyl]pyrrolidine]",–,141%,–
"CC(C)(CO)[C@@H](O)C(=O)NCCCC(=O)O [Calcium hopantenate, reference compound]",–,–,"response vs control in vivo at 250 mg/kg (ICR male mice; 250 mg/kg i.p., 30 minutes before mixed gas, control = 100): 135%"
